Read-outs that look alike come from different tables or passages of the source.

Results on 29 molecules are retold here after US10633338B2, “Binding Function 3 (BF3) site compounds as therapeutics and methods for their use” (THE UNIVERSITY OF BRITISH COLUMBIA, priority 2014, dated 2020).

One assay deals with T1, androgen receptor (AR) (Homo sapiens, UniProt P10275, T878A).
T1 construct: stably transfected eGFP-expressing LNCaP human prostate cancer cells (LN-ARR2PB-eGFP) containing an androgen responsive probasin-derived promoter; endogenous in cells; host or cells: LNCaP (LN-ARR2PB-eGFP)
T1 sequence (P10275 1-920 T878A): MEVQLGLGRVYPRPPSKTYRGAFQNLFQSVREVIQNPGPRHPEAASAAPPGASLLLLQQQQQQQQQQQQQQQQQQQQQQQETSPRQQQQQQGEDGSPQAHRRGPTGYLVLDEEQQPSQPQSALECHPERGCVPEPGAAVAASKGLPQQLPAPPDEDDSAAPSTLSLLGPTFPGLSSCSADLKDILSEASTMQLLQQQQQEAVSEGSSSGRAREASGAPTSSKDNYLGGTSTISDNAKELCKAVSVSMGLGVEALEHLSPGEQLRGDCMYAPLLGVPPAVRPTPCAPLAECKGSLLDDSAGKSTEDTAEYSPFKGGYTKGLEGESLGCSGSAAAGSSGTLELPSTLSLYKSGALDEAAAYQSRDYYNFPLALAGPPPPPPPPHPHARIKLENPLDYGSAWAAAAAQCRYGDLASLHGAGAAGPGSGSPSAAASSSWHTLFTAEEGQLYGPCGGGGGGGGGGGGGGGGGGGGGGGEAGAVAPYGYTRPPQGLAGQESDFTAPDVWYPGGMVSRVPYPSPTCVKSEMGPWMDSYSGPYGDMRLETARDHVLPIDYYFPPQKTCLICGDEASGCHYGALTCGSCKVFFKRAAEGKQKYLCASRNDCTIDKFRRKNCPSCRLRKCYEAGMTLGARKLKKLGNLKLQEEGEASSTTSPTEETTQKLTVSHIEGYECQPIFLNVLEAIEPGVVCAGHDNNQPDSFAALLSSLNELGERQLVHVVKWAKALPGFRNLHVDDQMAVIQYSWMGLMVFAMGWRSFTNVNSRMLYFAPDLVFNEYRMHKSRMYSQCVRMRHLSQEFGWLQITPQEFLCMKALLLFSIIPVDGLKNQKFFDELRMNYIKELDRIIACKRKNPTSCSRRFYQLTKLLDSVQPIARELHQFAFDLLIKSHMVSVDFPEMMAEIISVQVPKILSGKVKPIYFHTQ
In words: eGFP cellular AR transcription assay. It counts as cell-based. The note with it: LN-ARR2PB-eGFP LNCaP cells, 0.1 nM R1881, 3 days, 0-100 μM compound; for IC50: read-out: IC50 (eGFP). Here is the method: After 5 days, the cells were plated into a 96-well plate (35,000 cells/well) with 0.1 nM of the synthetic androgen R1881 and increasing concentrations (0-100 μM) of compound.
After 5 days, the cells were plated into a 96-well plate (35,000 cells/well) with 0.1 nM R1881 and increasing concentrations (0-100 μM) of compound.
In this assay, the expression of eGFP is under the control of an androgen responsive probasin-derived promoter and can quantify AR transcriptional activity.

For another assay, the system named is PSA. In words: Prostate Surface Antigen (PSA) assay, PSA excreted into the media. The format is cell-based, human. The note with it: same plates as eGFP assay. Here is the method: The evaluation of PSA excreted into the media was performed in parallel to the eGFP assay using the same plates (see above description). After the cells were incubated for 3 days 150 μl of the media was taken from each well, and added to 150 μl of PBS.

Setting [1] is: Homo sapiens, 72 h, media after 3 days, read-out: IC50 (PSA).
[2] abbreviates: PSA excreted into media, 3 days incubation, read-out: PSA IC50.
The mark [3] stands for this setting: Homo sapiens, 72 h, PSA excreted into media, 3 days incubation, read-out: PSA IC50.

What is called IC50 is the concentration at which inhibition is half-maximal. In the case of `c1ccc2c(c1)NC(c1c[nH]c3ccccc13)C21CCCCC1` (stereo not shown) [13 534], the concentration for half-maximal inhibition (IC50) at androgen receptor (AR) came out at 800 nM; in the assay on PSA (setting [1]) it was 1250 nM.
For `Cc1ccc2[nH]cc(C3Nc4ccccc4C3(C)C)c2c1` (stereo not shown) [13 535], the half-inhibitory concentration (IC50) was 1500 nM on androgen receptor (AR) and 1870 nM with PSA (setting [1]).
For `COc1ccc2[nH]cc(C3Nc4ccccc4C3(C)C)c2c1` (stereo not shown) [13 536] the same measures were 2200 nM and 2520 nM.
For `CC1(C)C(c2c[nH]c3ncccc23)=Nc2ccccc21` [13 537] the same measures were 700 nM and 810 nM.
For `CC1(C)C(c2c[nH]c3c(O)cccc23)=Nc2ccccc21` [13 541] the same measures were 500 nM and 940 nM.
In the case of `CC1(C)c2ccc(Br)cc2NC1c1c[nH]c2c(OCc3ccccc3)cccc12` (stereo not shown) [13 543], the IC50 on androgen receptor (AR) is 3700 nM; with PSA (setting [1]) it was 3190 nM.
On to `Cc1ccc2[nH]cc(C3Nc4ccccc4C34CCCCC4)c2c1` (stereo not shown) [13 548], for which the concentration for half-maximal inhibition (IC50) came to 3200 nM on androgen receptor (AR) and 4240 nM with PSA (setting [1]).
For `Cc1cccc2c(C3Nc4ccccc4C34CCCCC4)c[nH]c12` (stereo not shown) [13 549] the same measures were 1700 nM and 2570 nM.
For `Oc1cccc2c(C3Nc4ccccc4C34CCCCC4)c[nH]c12` (stereo not shown) [13 552] the same measures were 1100 nM and 1140 nM.
For `COc1cccc2c(-c3cc(C)c4ccccc4n3)c[nH]c12` [13 554] the same measures were 600 nM and 670 nM.
For the molecule `CC1(C)c2ccccc2NC1c1c[nH]c2ncccc12` (stereo not shown) [13 556], the values for the IC50 at androgen receptor (AR) and in the assay on PSA (setting [1]) were 2100 nM and 2180 nM, respectively.
For `c1ccc2nc(-c3c[nH]c4ccccc34)ccc2c1` [13 562] the same measures were 60 nM and 140 nM.
For `CCc1cccc2c(-c3ccc4ccccc4n3)c[nH]c12` [13 567] the same measures were 200 nM and 230 nM.
For `Brc1ccc2c(-c3ccc4ccccc4n3)c[nH]c2c1` [13 568] the same measures were 1300 nM and 1560 nM.
Turning to `Cc1cccc2cnn(-c3ccc4ccccc4n3)c12` [13 575], the figures for the half-inhibitory concentration (IC50) at androgen receptor (AR) and in the assay on PSA (setting [1]) were 3500 nM and 1360 nM, respectively.
For `Fc1ccc2c(-c3ccc4ccccc4n3)c[nH]c2c1` [13 576] the same measures were 144 nM and 48 nM.
For `Cc1ccc2[nH]cc(-c3ccc4ccccc4n3)c2c1` [13 577] the same measures were 3200 nM and 1730 nM.
For `Brc1cccc2c(-c3ccc4ccccc4n3)c[nH]c12` [13 582] the same measures were 52 nM and 41 nM.
Take `c1ccc2nc(-c3c[nH]c4cnccc34)ccc2c1` [13 583]: the IC50 at androgen receptor (AR) came out at 1100 nM; in the assay on PSA (setting [1]) it was 930 nM.
With `c1ccc2ncc(-c3c[nH]c4ccncc34)cc2c1` [13 637], the “IC50 (eGFP)” value on androgen receptor (AR) was “IC50 (eGFP) = Inactive”. Besides, the “IC50 (PSA)” value in the assay with PSA (media after 3 days) is “IC50 (PSA) = Inactive”.
Turning to `COc1ccc(Br)cc1-c1c[nH]c2ccccc12` [13 638], the “IC50 (eGFP)” value against androgen receptor (AR) was “IC50 (eGFP) = Inactive”. Besides, in the assay on PSA (media after 3 days), the “IC50 (PSA)” value is on record as “IC50 (PSA) = Inactive”.
On to `Brc1cccc2c(-c3cnc4ccccc4c3)c[nH]c12` [13 653], for which the half-inhibitory concentration (IC50) is 1130 nM on androgen receptor (AR) and 290 nM in the assay with PSA (setting [1]).
For `Cc1cccc2c(-c3cnc4ccccc4c3)c[nH]c12` [13 654] the same measures were 920 nM and 160 nM.
On to `Cc1cccc2c(-c3cnc4ccccc4c3)c[nH]c12` [Compound 13654], for which the half-inhibitory concentration (IC50) with PSA (setting [2]) came to 160 nM.
In the case of `Cc1cccc2c(-c3ccc4cccc(Br)c4n3)c[nH]c12` [Compound 13677], in the assay on PSA (setting [3]), the IC50 was determined as 110 nM.
Turning to `c1ccc(-c2nc3ccccc3[nH]2)cc1` [Compound 13686], the “PSA IC50” value in the assay with PSA (PSA excreted into media, 3 days incubation) was “Inactive”.
Take `Cc1cccc2c(-c3ccc4cccc(F)c4n3)c[nH]c12` [Compound 13692]: the IC50 in the assay on PSA (setting [3]) was 82 nM.
With `CNC(=O)c1cccc2nc(-c3c[nH]c4c(F)c(F)c(F)cc34)ccc12` [Compound 13754], the IC50 with PSA (setting [2]) amounted to 51 nM.
With `Fc1cc2c(-c3ccc4c(C(F)(F)F)cccc4n3)c[nH]c2c(F)c1F` [Compound 13761], in the assay with PSA (setting [3]), the IC50 was 383 nM.
